According to patent US8518953B2, “Aminopyrimidines useful as inhibitors of protein kinases” (Vertex Pharmaceuticals Incorporated, priority 2007, dated 2013):

Legend:
rats subjected to MCAO = assay: Post Stroke Recovery MCAO Model: Forepaw Asymmetry (Cylinder Test); format: in vivo, rat; conditions: low dose, 14 days after stroke
Text: Adult male Wistar rats are pre-trained on a battery of behavioral tests including: tray reach, […], forelimb asymmetry (cylinder bracing), forelimb inhibition (swim test) (see below for detailed description of tests). Following pre-stroke behavioral assessment the rats receive surgery during which a stroke is induced. The rats are pseudo-randomly divided into 5 equal groups (n=12) ensuring an equal number of right and left strokes within each treatment group. The first group receives sham surgery with vehicle as treatment. Administration of the test compound and vehicle (dose, route, timing) is determined by the sponsor. The core body temperature is maintained at 37° C. (+/-1°). Following surgery all animals are behaviorally assessed 1, 7, and 14 d post-stroke. At the conclusion of behavioral assessment all rats undergo an MRI to determine infarct volume. […] Rectal temperature is monitored and maintained at 37 C+/-1° C. for the duration of the surgery and until the rat is awake and mobile (approximately 3 hr). […] Forepaw asymmetry of the animals is measured by placing a rat into a clear acrylic cylinder 25 cm in diameter. […] The first paw that touches the cylinder wall during the rear is counted. […]

GSK-3α/β pTYR = assay: pTYR Biomarker Analysis in brains of MCAO rats (Western blot); format: in vivo, rat; conditions: all doses, at the termination of the study, compared to vehicle treated rats
Protocol: RIPA consists of 0.5 ml 10% SDS, 2.5 ml 10% Sodium Deoxycholate, 0.5 ml NP40, and 46.5 ml PBS. […] 10 mL of lysis buffer (modified RIPA) is added to tissue (1 ml/½ brain) and homogenized on ice. The lysates are then centrifuged at 10000 rpm for 10 min at 4° C. The supernatant is then transferred to a new tube and kept on ice. The supernatant samples are respun at 10000 rpm for 10 min at 4° C. The supernatant is then transferred to a new tube and kept on ice. An aliquot of the supernatant is taken and the protein is measured with the Pierce BCA protein assay kit (cat#23225), using BSA standard curve (do a 1:25 dilution in PBS). The remaining supernatant is diluted to 1 ug/ul with Biorad Laemmli Sample buffer (cat#161-0737) with β-mercaptoethanol added. The samples are boiled for 5 min at 95° C. and spun in a microfuge for 1 minute. The samples are snap frozen on dry ice and stored at −20° C. 10 ug of protein/lane (10 uL) is then loaded and the Western blot is run according to Example 3. Inhibition of GSK-3α/β pTYR is determined by comparing the density of the protein band in samples obtained from animals treated with compound to samples from vehicle treated animals. […] Lysates were analyzed by Western blot (see Example 3) and probed for GSK-3α/β pTYR levels.

In the case of Cc1nc(-c2ccccc2Cl)nc(Nc2n[nH]c3ncc(F)cc23)c1C [Compound I-1, N-(2-(2-chlorophenyl)-5,6-dimethylpyrimidin-4-yl)-5-fluoro-1H-pyrazolo[3,4-b]pyridin-3-amine], the “deficit in forepaw asymmetry (cylinder test)” value (rats subjected to MCAO) is reported as “significantly ameliorated this deficit” and the “GSK-3α/β pTYR signal in the brain” value (GSK-3α/β pTYR) is reported as “significant reduction in pTYR signal”.
